Measurements: paper PMC8509773, “3-Pyridinylidene Derivatives of Chemically Modified Lupane and Ursane Triterpenes as Promising Anticancer Agents by Targeting Apoptosis” (International Journal of Molecular Sciences, 2021)

Experiments:
Assay in all cases: NCI-60 SRB screening (one-dose and five-dose)
Assay type in all cases: cell-based, human
786-0 = settings: 786-0, 10 μM, 48 h
In short: (§1)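 After a 48-h incubation with compound, cellular protein was stained with SRB and growth estimated by spectrophotometry relative to untreated controls.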

A549/ATCC = settings: 10 μM, 48 h
In short: as §1

ACHN = settings: 10 μM, 48 h
In short: as §1

HCT-116 = settings: HCT-116, 10 μM, 48 h
In short: as §1

HS 578T = settings: 10 μM, 48 h
In short: (§2)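 Growth inhibition is scored with sulforhodamine B after 48 h of continuous compound exposure. An MG_MID averages each parameter over the whole cell panel, insensitive lines being counted at the top tested concentration.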

IGROV1 = settings: IGROV1, 10 μM, 48 h
In short: as §2

KM-12 = settings: KM-12, 10 μM, 48 h
In short: as §1

MALME-3M = settings: 10 μM, 48 h
In short: as §1

MCF7 = settings: MCF7, 10 μM, 48 h
In short: as §1

MDA-MB-231/ATCC = settings: 10 μM, 48 h
In short: as §1

NCI-H522 = settings: NCI-H522, 10 μM, 48 h
In short: (§3)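 Cells received compound at one concentration for 48 h. Growth was read by sulforhodamine B protein staining, as percentage versus untreated controls. Mean graph midpoints averaged each parameter over all cell lines, with insensitive lines entered at the highest tested concentration.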

NCI/ADR-RES = settings: 10 μM, 48 h
In short: as §1

OVCAR-4 = settings: OVCAR-4, 10 μM, 48 h
In short: as §2

PC-3 = settings: PC-3, 10 μM, 48 h
In short: as §1

SF-539 = settings: SF-539, 10 μM, 48 h
In short: as §1

SN12C = settings: 10 μM, 48 h
In short: as §3

SW-620 = settings: SW-620, 10 μM, 48 h
In short: as §1

T-47D = settings: T-47D, 10 μM, 48 h
In short: as §2

U251 = settings: U251, 10 μM, 48 h
In short: as §3

UACC-257 = settings: UACC-257, 10 μM, 48 h
In short: as §1

UACC-62 = settings: UACC-62, 10 μM, 48 h
In short: as §1

SMILES | Growth Percent (786-0) [%] | Growth Percent (A549/ATCC) [%] | Growth Percent (ACHN) [%] | Growth Percent (HCT-116) [%] | Growth Percent (HS 578T) [%] | Growth Percent (IGROV1) [%] | Growth Percent (KM-12) [%] | Growth Percent (MALME-3M) [%] | Growth Percent (MCF7) [%] | Growth Percent (MDA-MB-231/ATCC) [%] | Growth Percent (NCI/ADR-RES) [%] | Growth Percent (OVCAR-4) [%] | Growth Percent (PC-3) [%] | Growth Percent (SF-539) [%] | Growth Percent (SN12C) [%] | Growth Percent (SW-620) [%] | Growth Percent (T-47D) [%] | Growth Percent (U251) [%] | Growth Percent (UACC-257) [%] | Growth Percent (UACC-62) [%] | other results
COC(=O)[C@]12CC[C@@H](C(C)=O)[C@@H]1[C@H]1CC[C@@H]3[C@@]4(C)C/C(=C\c5cccnc5)C(=O)C(C)(C)[C@@H]4CC[C@@]3(C)[C@]1(C)CC2 [Compound 8, Methyl 3,20-dioxo-2-(3-pyridinylidene)-29-nor-lup-28-oate] | 84.87 | 51.40 | 32.49 | 3.92 | 74.77 | 85.80 | 60.52 | 29.95 | 19.18 | 76.56 | 52.54 | 26.68 | 24.42 | 81.03 | 57.75 | 25.33 | 24.42 | 56.61 | 58.14 | 34.54 | Growth Percent (NCI-H522): 47.50%
C[C@H]1[C@@H]2[C@H]3CC[C@@H]4[C@@]5(C)CC[C@H](O)C(C)(C)[C@@H]5CC[C@@]4(C)[C@]3(C)CC[C@]23CO[C@@]1(C)[C@@H](C(=O)/C=C/c1ccco1)C3 [Compound 5, 3β-Hydroxy-21-[3-(2E-furyl)-prop-2-en-1-one]-20β,28-epoxy-18α,19βH-ursane] | 103.94 | 103.89 | 44.33 | 100.13 | 95.83 | 107.89 | 99.96 | −11.31 | 101.23 | 82.90 | 95.25 | 111.19 | 92.69 | 99.66 | 100.53 | 97.06 | 84.80 | 69.38 | −8.91 | 7.16 | Growth Percent (NCI-H522): 87.83%
CC(=O)[C@H]1C[C@]23CC[C@]4(C)[C@H](CC[C@@H]5[C@@]6(C)CCC(=O)C(C)(C)[C@@H]6CC[C@]54C)[C@H]2[C@H](C)[C@@]1(C)OC3 [Compound 2, 3-oxo-21β-acetyl-20β,28-epoxy-18α,19βH-ursane] | 89.64 | 93.03 | 99.80 | 100.51 | 103.91 | 88.93 | 102.54 | 109.60 | 90.80 | 85.22 | 102.89 | 85.13 | 87.23 | 95.15 | 87.69 | 95.81 | 106.29 | 107.36 | 103.91 | 85.81 | –
